Laboratory results reported in patent US4483989A, “Synthesis of pyrido[4,3-b]carbazole derivatives” (priority 1973, dated 1984).
“Also recorded” adds a separate entry of the source. Like-named read-outs stand apart in the source and are kept apart here.

How the values were obtained:
mouse P 388 leukemia = assay: P 388 leukemia in mice, same procedure, inoculum of 10^5 cells; assay type: in vivo; conditions: same doses, compared with L1210 leukemia
From the text: The effect the compounds of the invention have on mouse L 1210 or P 388 leukemias was used to test the antitumor activity of said compounds.
B-The same procedure was used as in A, but after a tumoral inoculum of 10^5 P 388 leukemia cells had been injected to the mice. The therapeutic activity of the 9-hydroxy 2-methyl-ellipticinium was similar on this mouse P 388 leukemia to that obtained on mouse L1210 leukemia, using the same doses.

[1] = mouse, in vivo
[2] = for LDo (highest non lethal dose / sublethal dose) for mice: route not given
From the text: (§1) The mice were randomized in each experimental series. A first routine experiment enable the death rate by toxicity to be determined and thus established the sublethal doses.
(§2) To evaluate the therapeutic activity of the compounds of the invention, doses of said compound were expressed basing them on the 30 days sublethal dose which was fixed at 1.

mouse L 1210 leukemia [3] = assay: L1210 leukemia in mice: inoculum of 10^5 cells, single dose of compound 24 hours later; assay type: in vivo; conditions: for ED (ILS 25%): Mus musculus, L1210, ip, read-out: L 1210 cells: in vivo dose to reach ILS 25%
From the text: The experimental tumor mouse L 1210 leukemia is commonly used to evaluate the effects of all the antitumor compounds now used in human therapeutics,as was described, for example, by C. C. ZUBROD in Proc. Nat. Acad. Sci. USA 69, 1972, pp. 1042-1047. This experimentally formed tumoral system permits very accurate quantitative evaluation of the activity of the compound tested and also, consequently, an objective comparison of the respective activities of various compounds, for example, according to the methods described by H. E. SKIPPER, F. M. SCHABEL Jr. and W. S. WILCOX in Cancer Chemiother. Rep. 1964, pp. 1-111 and 45, 1965, pp. 5-28.
as §1
According to the convention in force in this field, the animals which survived longer than 45 days after inoculation of tumoral cells were considered to be cured.
as §2
A--A tumoral inoculum of 10^5 L1210 leukemia cells was administered by the intraperitoneal way to twenty 2 to 3 months old DBA/2 strain female mice. 24 hours later, half of said mice received a single intraperitoneal injection of a variable dose of the compound to be tested and the same volume of solvent was administered to the other half of the mice by the same way; this latter half of the group of mice was therefore used as the control series. The mice were randomized in each experimental series.
Animals surviving for longer than 45 days were considered to be cured.

[4] = Autoradiography with 14C-labeled molecules (biodisponibility); assay type: in vivo
From the text: To understand the increase of the antitumor efficiency of the quaternarized compounds, several parameters of action of 9--OH--E and its methyl derivative have been comparatively established (see table III). Both compounds have about the same affinity for DNA. On a weight basis, the methyl compound is about 10 times more toxic in mice but also 10 times more efficient on leukemic mice (ILS). […] Therefore, there is no quantitative parallel between the in vivo and in vitro action of these drugs. The N-quaternization markedly changes the biodisponibility of the drugs as shown by autoradiography with ^14 C-labeled molecules. […] Several ellipticine derivatives are mutagenic on Ames Salmonella test; however, the quaternized derivatives lose this property. The microsomes, which are able to metabolize some ellipticines, increase the mutagenic ability of these drugs in vitro. […] Due to the curved shape of their molecules, their relative hydrophobicity, and the presence of a heterocyclic nitrogen, the ellipticines are good substrates for the cytochrome P450 system, provided that the 2-N remains uncharged.

DNA = DNA affinity; assay type: binding
L1210 cells = assay: Rate of L1210 cells multiplication in vitro; assay type: cell-based, mouse
[5] = test system: advanced breast, thyroid, or colon cancers; assay: Phase I trial, weekly intravenous dose, refractory patients; assay type: in vivo, human
Experimental: A phase I trial was done at the Cancer Institute of 14-Caen, France. A weekly dose in the range of 50 to 100 mg per m2 was given intravenously over a 30 minutes period to patients refractory to usual chemotherapeutic or radiotherapeutic treatments (3). […] They were suffering from advanced breast, thyroid, or colon cancers, with bone or lung metastasis in mostcases.

[6] = Metabolic studies in mice
[7] = test system: acute myeloblastic leukemia; conditions: in vivo; cited from earlier work
[8] = cited from earlier work
BP 8 tumors = conditions: mouse, in vivo; cited from earlier work
Hodgkin's disease = conditions: in vivo; cited from earlier work
mouse L 1210 leukemia [9] = conditions: in vivo; cited from earlier work
[10] = test system: acute lymphoblastic leukemia; conditions: in vivo; cited from earlier work

SMILES: Cc1c2cc[n+](C)cc2c(C)c2c1[nH]c1ccc(O)cc12 [9-hydroxy 2-methyl ellipticinium acetate, 9-hydroxy-2-methyl-ellipticinium acetate]
- Therapeutic activity on mouse P 388 leukemia (mouse P 388 leukemia): similar
- Metabolism [1]: excreted with no major modification
- Toxicity in mice relative to 9--OH--E, on a weight basis [2]: about 10 times
- LDo (highest non lethal dose / sublethal dose) for mice [2]: 5 mg/kg
- Doses smaller than the doses of 9-hydroxy-ellipticine necessary to obtain a comparable result (mouse L 1210 leukemia [3]; L1210 leukemia): about 10 times
- ED (ILS 25%) (mouse L 1210 leukemia [3]; mice): 1 mg/kg
- Cured mouse surviving more than 45 days (mouse L 1210 leukemia [3]; footnote of table IV, I.P., 10^5 L1210 cells): 1 out of 20 mice
- Efficiency on leukemic mice (ILS) relative to 9--OH--E, on a weight basis (mouse L 1210 leukemia [3]; mouse, in vivo): about 10 times
- Elimination [4]: elimination through feces is reduced
- Organ distribution (autoradiography) ([4]; listed as methyl derivative): devoid of any ability to concentrate in lungs and pancreas; also recorded: capacity to concentrate in the intestinal walls and in the thyroid
- Kd (DNA): 769 nM
- Activity on the rate of growth of L1210 cells in vitro relative to 9--OH--E (L1210 cells): four times less active
- Activity on human tumors ([5]; human, in vivo): active on some human tumors
- Toxic side effects ([5]; phase I trial): No major toxic side effects
- Patients with subjective or objective improvements ([5]; weekly 50 to 100 mg per m2 intravenously over 30 minutes): Eight of the first 18 patients

SMILES: Cc1c2ccncc2c(C)c2c1[nH]c1ccc(O)cc12 [Example 9-OH--E, 9-hydroxy-ellipticine, reference compound]
- LDo (highest non lethal dose / sublethal dose) for mice [2]: 50 mg/kg
- ED (ILS 25%) (mouse L 1210 leukemia [3]): 10 mg/kg
- Elimination [4]: mostly eliminated through the bile into feces
- Organ distribution (autoradiography) [4]: concentrates in several organs, including the lungs and the pancreas
- Kd (DNA): 435 nM
- Metabolism [6]: only glucuroconjugated

SMILES: COc1ccc2[nH]c3c(C)c4ccncc4c(C)c3c2c1 [9-methoxy-ellipticine lactate]
- Effectiveness in acute myeloblastic leukemia [7]: effective
- Immunosuppressive action ([8]; administered after the antigen): has an immunosuppressive action
- Immunosuppressive action ([8]; administered to humans): does not reveal such an activity
- Oncostatic action in BP 8 tumors (BP 8 tumors): oncostatic action
- Effectiveness in Hodgkin's disease (Hodgkin's disease): ineffective
- Oncostatic action in mouse L 1210 leukemia (mouse L 1210 leukemia [9]): oncostatic action
- Effectiveness in acute lymphoblastic leukemia [10]: ineffective
